Results taken from US20250144067A1, “PERSONALIZED STARVATION THERAPY FOR CANCER” (Faeth Therapeutics, Inc., priority 2021, published 2025).
Structures can show the parent of a compound that is named as a salt. Where two headings read alike, the source gives them in different places.

Experiments:
[1] = tested on: NCI-H292 lung cancer cells; assay: FDA drug screening, complete media vs cholesterol-free media without statin (TABLE 1); type: cell-based, human
[2] = tested on: NCI-H292 lung cancer cells; assay: FDA drug screening, complete media vs cholesterol-free media with simvastatin (TABLE 2); type: cell-based, human
[3] = NCI-H292 cells, FDA library drug in cholesterol-free media with simvastatin 0.04 μM
[4] = NCI-H292 cells, FDA library drug in complete media
[5] = complete media vs cholesterol-free media + simvastatin (0.04 μM), >0 enhanced anti-cancer activity, about 0 neutral, <0 antagonist
[6] = Complete minus Cholesterol-free, >0 enhanced anti-cancer activity, about 0 neutral, <0 antagonist
[7] = NCI-H292 cells, cholesterol-free media without statin
[8] = NCI-H292 cells, drug in cholesterol-free media with simvastatin 0.04 μM
[9] = NCI-H292 cells, drug in complete media
[10] = complete vs cholesterol-free media, greater than 0 enhanced anti-cancer activity, about 0 neutral, below 0 antagonists
[11] = NCI-H292 cells, FDA drug library screen, cholesterol-free media with simvastatin 0.04 μM
[12] = NCI-H292 cells, FDA drug library screen, complete media
[13] = Complete minus Cholesterol-free, […]
[14] = NCI-H292 cells, cholesterol-free media without statin, FDA drug library screen
[15] = NCI-H292 cells, complete media, FDA drug library screen
[16] = NCI-H292 cells, cholesterol-free media with simvastatin 0.04 μM, FDA drug library screen (TABLE 2)
[17] = NCI-H292 cells, complete media, FDA drug library screen (TABLE 2)
[18] = complete media minus cholesterol-free media + simvastatin (0.04 μM), […]
[19] = complete vs cholesterol-free media, […]
[20] = complete vs cholesterol-free media, >0 enhanced anti-cancer activity, about 0 neutral, <0 antagonist
[21] = complete media minus cholesterol-free media + simvastatin (0.04 μM), >0 enhanced anti-cancer activity, about 0 neutral, <0 antagonist
[22] = complete media minus cholesterol-free media + simvastatin, […]
[23] = Complete minus Cholesterol-free, greater than 0 enhanced anti-cancer activity, about 0 neutral, below 0 antagonist
[24] = NCI-H292 cells, FDA drug library screen, cholesterol-free media without statin
[25] = complete media minus cholesterol-free media + simvastatin, >0 enhanced anti-cancer activity, about 0 neutral, <0 antagonist
[26] = NCI-H292 cells, cholesterol-free media with simvastatin 0.04 μM, […]
[27] = NCI-H292 cells, complete media, […]

Compound: CS(=O)(=O)n1cc2c(n1)CN([C@H]1CO[C@H](c3cc(F)ccc3F)[C@@H](N)C1)C2 [Omarigliptin]
- Difference ([1]; Complete minus Cholesterol-free, greater than 0 enhanced anti-cancer activity, about 0 neutral, below 0 antagonists): −0.63
- Cholesterol-free ([1]; NCI-H292 cells in cholesterol-free media without statin): 1.475
- Complete ([1]; NCI-H292 cells in complete media): 0.8446
- Cholesterol-free media + simvastatin (0.04 μM) [2, 3]: 1.764
- Complete Media [2, 4]: 1.42
- Difference [2, 5]: −0.34

Compound: CC(=O)c1c(C)c2cnc(Nc3ccc(N4CCNCC4)cn3)nc2n(C2CCCC2)c1=O [Palbociclib (hydrochloride)]
- Difference [1, 6]: −0.26
- Cholesterol-free [1, 7]: 1.289
- Complete ([1]; NCI-H292 cells, complete media): 1.028
- Cholesterol-free media + simvastatin (0.04 μM) [2, 8]: 1.037
- Complete Media [2, 9]: 0.8185
- Difference [2, 5]: −0.22

Compound: CC(C)NCC(O)c1ccc(NS(C)(=O)=O)cc1 (stereo not shown) [Sotalol (hydrochloride)]
- Cholesterol-free [1, 7]: 1.39
- Complete ([1]; NCI-H292 cells, complete media): 0.9629
- Difference [1, 10]: −0.43
- Cholesterol-free media + simvastatin (0.04 μM) [2, 11]: 0.8339
- Complete Media [2, 12]: 0.7583
- Difference [2, 5]: −0.08

Compound: CC(=O)NCCCS(=O)(=O)O [Acamprosate (calcium)]
- Difference [1, 13]: 0.03
- Cholesterol-free [1, 14]: 1.751
- Complete [1, 15]: 1.779
- Cholesterol-free media + simvastatin (0.04 μM) [2, 16]: 1.34
- Complete Media [2, 17]: 1.328
- Difference [2, 18]: −0.01

Compound: CCC(CC)[C@H](NC(C)=O)[C@@H]1[C@H](O)[C@@H](C(=O)O)C[C@H]1NC(=N)N.O.O.O [Peramivir (trihydrate)]
- Cholesterol-free [1, 7]: 2.062
- Complete ([1]; NCI-H292 cells, complete media): 1.606
- Difference [1, 10]: −0.46
- Cholesterol-free media + simvastatin (0.04 μM) [2, 11]: 1.025
- Complete Media [2, 12]: 0.9283
- Difference [2, 5]: −0.10

Compound: CCN(CC)C(=O)C1(c2ccccc2)CC1CN (stereo not shown) [Milnacipran (hydrochloride)]
- Cholesterol-free [1, 7]: 1.545
- Complete ([1]; NCI-H292 cells, complete media): 1.09
- Difference [1, 19]: −0.45
- Cholesterol-free media + simvastatin (0.04 μM) [2, 16]: 1.626
- Complete Media [2, 17]: 1.564
- Difference [2, 18]: −0.06

Compound: COc1cccc2c1C(=O)c1c(O)c3c(c(O)c1C2=O)C[C@@](O)(C(=O)CO)C[C@@H]3O[C@H]1C[C@H](N)[C@H](O)[C@H](C)O1 [Doxorubicin (hydrochloride)]
- Cholesterol-free [1, 14]: −0.08252
- Complete [1, 15]: −0.006007
- Difference [1, 20]: 0.08
- Cholesterol-free media + simvastatin (0.04 μM) [2, 16]: 0.09054
- Complete Media [2, 17]: 0.01994
- Difference [2, 21]: −0.07

Compound: CC(C)Oc1ccc2c(=O)c(-c3ccccc3)coc2c1 [Ipriflavone]
- Cholesterol-free [1, 14]: 0.6871
- Complete [1, 15]: 1.135
- Difference [1, 20]: 0.45
- Cholesterol-free media + simvastatin (0.04 μM) [2, 16]: 1.029
- Complete Media [2, 17]: 1.016
- Difference [2, 21]: −0.01

Compound: Pasiniazid
- Cholesterol-free [1, 14]: 1.164
- Complete [1, 15]: 1.274
- Difference [1, 19]: 0.11
- Cholesterol-free media + simvastatin (0.04 μM) [2, 11]: 1.047
- Complete Media [2, 12]: 1.325
- Difference [2, 22]: 0.28

Compound: CCCCC1C(=O)N(c2ccccc2)N(c2ccc(O)cc2)C1=O (stereo not shown) [Oxyphenbutazone]
- Difference [1, 23]: −0.11
- Cholesterol-free [1, 24]: 1.282
- Cholesterol-free media + simvastatin (0.04 μM) [2, 3]: 1.844
- Complete Media [2, 4]: 1.056
- Difference [2, 5]: −0.79

Compound: CC(=O)Oc1cc(C(C)C)c(OCCN(C)C)cc1C [Moxisylyte (hydrochloride)]
- Difference [1, 6]: 0.07
- Cholesterol-free [1, 14]: 1.028
- Complete [1, 15]: 1.096
- Cholesterol-free media + simvastatin (0.04 μM) [2, 8]: 1.237
- Complete Media [2, 9]: 1.071
- Difference [2, 5]: −0.17

Compound: Octreotide (acetate)
- Cholesterol-free [1, 7]: 1.157
- Complete ([1]; NCI-H292 cells, complete media): 0.7258
- Difference [1, 19]: −0.43
- Complete Media [2, 12]: 1.58
- Difference [2, 22]: 0.17

Compound: OC(CNCC(O)C1CCc2cc(F)ccc2O1)C1CCc2cc(F)ccc2O1 (stereo not shown) [Nebivolol (hydrochloride)]
- Cholesterol-free [1, 14]: 0.567
- Difference [1, 20]: 0.61
- Cholesterol-free media + simvastatin (0.04 μM) [2, 16]: 0.9013
- Complete Media [2, 17]: 0.8774
- Difference [2, 21]: −0.02

Compound: CC1(C)CC[C@]2(C(=O)O)CC[C@]3(C)C(=CC[C@@H]4[C@@]5(C)CC[C@H](O)C(C)(C)[C@@H]5CC[C@]43C)[C@@H]2C1 [Oleanolic Acid]
- Difference [1, 6]: −0.19
- Cholesterol-free [1, 7]: 1.001
- Complete ([1]; NCI-H292 cells, complete media): 0.8111
- Cholesterol-free media + simvastatin (0.04 μM) [2, 11]: 1.063
- Complete Media [2, 12]: 1.721
- Difference [2, 25]: 0.66

Compound: Bleomycin (sulfate)
- Difference [1, 13]: −0.05
- Cholesterol-free [1, 14]: 0.05041
- Complete [1, 15]: −0.00442
- Cholesterol-free media + simvastatin (0.04 μM) [2, 26]: 0.1778
- Complete Media [2, 27]: 0.2205
- Difference [2, 22]: 0.04

Compound: CCCOC(=O)c1cc(O)c(O)c(O)c1 [Propyl gallate]
- Cholesterol-free [1, 7]: 1.541
- Complete ([1]; NCI-H292 cells, complete media): 1.125
- Difference [1, 10]: −0.42
- Cholesterol-free media + simvastatin (0.04 μM) [2, 8]: 1.306
- Complete Media [2, 9]: 1.135
- Difference [2, 5]: −0.17

Compound: O=C(Nc1ccc(O)cc1)c1ccccc1O [Osalmid]
- Cholesterol-free [1, 14]: 1.209
- Complete [1, 15]: 1.432
- Difference [1, 20]: 0.22
- Cholesterol-free media + simvastatin (0.04 μM) [2, 16]: 0.9033
- Complete Media [2, 17]: 0.8951
- Difference [2, 21]: −0.01

Compound: CC1=C(C)C(=O)C(CCCCCCCCCC[P+](c2ccccc2)(c2ccccc2)c2ccccc2)=CC1=O.[Br-] [Visomitin]
- Difference [1, 13]: −0.06
- Cholesterol-free [1, 14]: 0.06935
- Complete [1, 15]: 0.01194
- Cholesterol-free media + simvastatin (0.04 μM) [2, 26]: 0.1378
- Complete Media [2, 27]: 0.1554
- Difference [2, 22]: 0.02

Compound: COC(=O)c1cccc(CCN(C)CCC[C@@](C#N)(c2ccc(OC)c(OC)c2)C(C)C)c1 [Etripamil]
- Cholesterol-free [1, 7]: 1.343
- Complete ([1]; NCI-H292 cells, complete media): 0.9721
- Difference [1, 19]: −0.37
- Cholesterol-free media + simvastatin (0.04 μM) [2, 26]: 0.8109
- Complete Media [2, 27]: 0.8724
- Difference [2, 22]: 0.06

Compound: Sumatriptan (succinate)
- Cholesterol-free [1]: 0.9558
- Complete [1]: 2.035
- Difference [1]: 1.08
- Cholesterol-free media + simvastatin (0.04 μM) [2]: 1.195
- Complete Media [2]: 0.8897
- Difference [2]: −0.31

Compound: Fenticonazole (Nitrate)
- Cholesterol-free [1, 14]: 0.9899
- Difference [1, 20]: 0.08
- Cholesterol-free media + simvastatin (0.04 μM) [2, 11]: 0.6564
- Complete Media [2, 12]: 1.167
- Difference [2, 25]: 0.51

Compound: Cc1c(C)c2c(c(C)c1O)CC[C@@](C)(CCC[C@H](C)CCC[C@H](C)CCCC(C)C)O2 [α-Vitamin E]
- Cholesterol-free [1, 7]: 1.5
- Complete ([1]; NCI-H292 cells, complete media): 1.082
- Difference [1, 10]: −0.42
- Cholesterol-free media + simvastatin (0.04 μM) [2, 3]: 1.493
- Complete Media [2, 4]: 0.9076
- Difference [2, 5]: −0.59

Compound: O=C1CN(/N=C/c2ccc([N+](=O)[O-])o2)C(=O)N1 [Nitrofurantoin]
- Difference [1, 23]: −0.16
- Cholesterol-free [1, 24]: 1.115
- Complete [1, 12]: 0.9573
- Cholesterol-free media + simvastatin (0.04 μM) [2, 11]: 0.848
- Complete Media [2, 12]: 0.7708
- Difference [2, 5]: −0.08

Compound: NS(=O)(=O)c1cc2c(cc1Cl)N=C(CSCc1ccccc1)NS2(=O)=O [Benzthiazide]
- Difference [1, 23]: −0.08
- Cholesterol-free [1, 24]: 0.9561
- Complete [1, 12]: 0.8751
- Cholesterol-free media + simvastatin (0.04 μM) ([2]; NCI-H292 cells, cholesterol-free media with simvastatin 0.04 μM, cell growth value in FDA drug screen): 1.107
- Difference [2, 25]: 0.04
